# Literature values, collected in patent publication US11773111B1, “Selective 5-LO inhibitors for the treatment of bronchial asthma” (KING FAISAL UNIVERSITY, priority 2022, dated 2023).
# Legend:
# [1] = clinical use
# [2] = not given; remark: listed apart in the source
compound,measurement,setting,value
CC(c1cc2ccccc2s1)N(O)C(N)=O (stereo not drawn) [Zileuton],undesirable side effects,[1],hepatoxicity
same,serum half-life,,3 h
same,plasma protein binding,[2],93%
